In experiment [1] the target is T1, SNAT1 and SNAT2 (Homo sapiens, UniProt Q9H2H9).
T1 construct: endogenous in cells; host or cells: HCC1806 clone C10 (ASCT2ko) and clone D126 (ASCT2ko, SNAT2ko), amino acid depleted for 24 h
T1 sequence (Q9H2H9 1-487): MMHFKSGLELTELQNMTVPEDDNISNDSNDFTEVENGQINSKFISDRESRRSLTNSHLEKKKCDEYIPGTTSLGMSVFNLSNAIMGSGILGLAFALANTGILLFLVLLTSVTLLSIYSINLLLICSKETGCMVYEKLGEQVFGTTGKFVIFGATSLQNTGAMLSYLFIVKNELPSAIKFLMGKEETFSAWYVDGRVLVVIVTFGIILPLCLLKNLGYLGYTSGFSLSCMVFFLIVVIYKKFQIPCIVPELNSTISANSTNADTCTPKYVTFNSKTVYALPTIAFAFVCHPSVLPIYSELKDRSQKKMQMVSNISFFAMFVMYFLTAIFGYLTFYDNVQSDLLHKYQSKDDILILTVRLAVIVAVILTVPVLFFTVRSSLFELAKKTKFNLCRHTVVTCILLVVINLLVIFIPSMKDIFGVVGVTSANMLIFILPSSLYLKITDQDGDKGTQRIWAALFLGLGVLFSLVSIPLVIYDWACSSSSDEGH
Description: FMP assay in HCC1806 clones C10 (ASCT2ko) and D126 (ASCT2ko, SNAT2ko). In kind it is cell-based. Particulars: D126 cells. How it is done:
(§1) To delete the SNAT2 (SLC38A2) gene in modified HCC1806 cells (clone C10 nullizygous for ASCT2 ([Broer et al., 2019])), the GeneArt CRISPR Nuclease Vector with OFP Reporter Kit (Invitrogen; A21174) was employed and complementary 19–20 bp long single-stranded oligonucleotides with overhangs were designed to produce a guide RNA (gRNA) for the Cas9 nuclease that would target exon 7 of the SNAT2 gene. Colonies were analysed by sequencing using the U6 primer included in the GeneArt CRISPR Nuclease Vector with OFP Reporter kit. Plasmids that contained the correct CRISPR nuclease construct were then used to transfect HCC1806 cells with Lipofectamine 2000 (Invitrogen). Prior to transfection, medium was replaced with 2 ml of fresh DMEM/F-12 (supplemented with 10% heat-inactivated FBS and 2 mM glutamine). Plasmid DNA (4 µg) and 10 µL of Lipofectamine 2000 were incubated separately for 5 min at room temperature in 500 µl of Opti-MEM (Invitrogen) before being combined and incubated for a further 30 min at room temperature. The DNA-Lipofectamine complex was then added to the cells in a dropwise manner and allowed to be absorbed over 6 h at 37°C, after which the medium was renewed with fresh DMEM/F-12. Cells were checked for red fluorescence using an EVOS FL cell imaging system (Thermo Fisher Scientific) 48–72 h post transfection. Subsequently, cells were detached using 0.25% Trypsin EDTA. After harvesting and washing thrice with PBS (pH 7.4), cells were resuspended in PBS (pH 7.4) supplemented with 5 mM glucose and 1% dialysed and heat inactivated FBS and passed through a 100 μm cell strainer. The cell filtrate was then pelleted once more and resuspended in the same buffer. Cells were sorted using an ARIA II FACS machine and individually dispensed into the wells of a 96-well plate. Nullizygous clones were identified using a series of assays including the FLIPR membrane potential assay, western blotting and sequencing.
(§2) The FLIPR Membrane Potential Blue Explorer Kit (Molecular Devices) was used to characterise inhibitors and to optimise a high-throughput compound screen. Cells were seeded at approximately 60,000 cells/well on a 96-well plate and allowed to attach and grow overnight in a cell incubator. The next day, the cells were washed once with mHBSS and incubated in a starvation medium (composed of mHBSS with 1% dialysed heat-inactivated FBS, 23 mM NaHCO3, 10 U/ml penicillin and 10 μg/ml streptomycin) for 24 h. Cells were then washed once with mHBSS and incubated with 50 µl of the mHBSS-resuspended FMP assay dye and 50 µl of mHBSS (with or without inhibitors) and incubated at room temperature for 30 min. The plate was then placed in an EnSpire Multimode plate reader (PerkinElmer) and four sequential measurements of fluorescence were recorded as a baseline reference. Immediately after the baseline measurements were taken, 25 µl of 5 mM glutamine dissolved in mHBSS was injected into each well and the plate was shaken orbitally for 5 s before a series of consecutive fluorescence measurements were taken. The excitation wavelength was set to 530 nm and the emission was detected at 565 nm. The Δ fluorescent signal reported in the figures was taken 30 s after substrate addition. After the assay was complete, the liquid content of the plate was carefully removed, and the cell monolayer inspected to ensure it remained intact throughout the course of the assay.

For experiment [2], the target named is T2, SNAT1 and SNAT2 (Homo sapiens, UniProt Q96QD8).
T2 construct: endogenous in cells; host or cells: HCC1806 clone C10 (ASCT2ko) and clone D126 (ASCT2ko, SNAT2ko), amino acid depleted for 24 h
T2 sequence (Q96QD8 1-506): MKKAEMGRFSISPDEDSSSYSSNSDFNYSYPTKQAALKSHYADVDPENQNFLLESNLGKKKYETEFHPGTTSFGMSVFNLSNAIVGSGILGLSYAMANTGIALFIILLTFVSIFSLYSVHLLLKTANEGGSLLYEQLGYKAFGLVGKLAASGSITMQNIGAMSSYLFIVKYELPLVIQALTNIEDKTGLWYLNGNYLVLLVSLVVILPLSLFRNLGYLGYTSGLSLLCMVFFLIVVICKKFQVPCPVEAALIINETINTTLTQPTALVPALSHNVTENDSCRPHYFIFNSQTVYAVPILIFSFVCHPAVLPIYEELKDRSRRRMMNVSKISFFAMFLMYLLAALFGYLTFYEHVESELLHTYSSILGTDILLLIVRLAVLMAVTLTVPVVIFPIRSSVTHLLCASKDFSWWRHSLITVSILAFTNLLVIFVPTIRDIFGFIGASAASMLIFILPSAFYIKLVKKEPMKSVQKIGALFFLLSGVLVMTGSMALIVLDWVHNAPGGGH
Described as above. Type of experiment: cell-based. Particulars: 10 mM; HCC1806 wildtype and C10 cells. Here is the method: as §1, §2

Where “and” joins values, the source holds several entries; their conditions need not be identical. Equal values may be shown once.

On to `N[C@@H](CCC(=O)NO)C(=O)O` [GHX, L-glutamic acid γ-monohydroxamate], for which the “block of glutamine (1 mM) FMP signal” value at SNAT1 and SNAT2 [1] was “still blocked”. For the same molecule, the FMP fluorescence at SNAT1 and SNAT2 [1] (time 0, replicates 1-10) was 22435 and 17495 and 17429 and 17955 and 18811 and 18812 and 18737 and 18055 and 17050 and 17347; at SNAT1 and SNAT2 [1] (time 12, replicates 1-10), 20191; at SNAT1 and SNAT2 [1] (time 30, replicates 1-10) it was 20609 and 15706 and 15219 and 15815 and 16260 and 16292 and 16468 and 15594 and 14527 and 15164; on SNAT1 and SNAT2 [1] (time 40, replicates 1-10), 20541 and 15480 and 15193 and 15674 and 16277 and 16260 and 16583 and 15586 and 14696 and 15217; on SNAT1 and SNAT2 [1] (time 50, replicates 1-10), 20610 and 15277 and 15074 and 15756 and 16154 and 16238 and 16249 and 15554 and 14656 and 15194; on SNAT1 and SNAT2 [1] (time 60, replicates 1-10), 20690 and 15464 and 15031 and 15758 and 16045 and 16010 and 16126 and 15471 and 14546 and 15121. The FMP fluorescence at SNAT1 and SNAT2 [1] (time 70, replicates 1-10) is 20527 and 15130 and 14967 and 15329 and 16082 and 16096 and 16209 and 15213 and 14316 and 15085; at SNAT1 and SNAT2 [1] (time 80, replicates 1-10), 20404 and 15072 and 14875 and 15595 and 16009 and 15975 and 15951 and 15190 and 14182 and 15130; on SNAT1 and SNAT2 [1] (time 90, replicates 1-10) it was 20524 and 15134 and 14788 and 15354 and 15654 and 15782 and 15863 and 15065 and 14296; on SNAT1 and SNAT2 [1] (time -10, replicates 1-10), 22909 and 17766 and 17765 and 18446 and 19408 (2×) and 19505 and 18694 and 17349 and 17632; on SNAT1 and SNAT2 [1] (time -20, replicates 1-10) it was 23556 and 18431 and 18738 and 19301 and 20185 and 20456 and 20335 and 19156 and 18269 and 18621.
Regarding `C[N+](C)(C)CC(=O)O` [Betaine, betaine], the “FMP signal as substrate” value at SNAT1 and SNAT2 [2] is given as “strong FMP signal”.

The values above are taken from PMC9532951, “Identification and characterization of a novel SNAT2 (SLC38A2) inhibitor reveals synergy with glucose transport inhibition in cancer cells” (Frontiers in Pharmacology, 2022).
